Measurements taken from a melting point compilation (Tetko et al.; mined from patent text by program, amines drawn as free bases though some values may be those of a salt).

First: Cn1nc(-c2ccc(C(=O)N3CCN(C4CCCC4)CC3)cc2)ccc1=O
Second: CS(=O)(=O)c1ccc(-c2cnn(C3CCC3)c(=O)c2-c2ccc(F)cc2)cc1
The melting point of the first is lower: 177 to 179 °C for the first, 202 to 203 °C for the second.

First: C#CCN(C(=O)OC(C)(C)C)C1CCc2ccc([N+](=O)[O-])cc21 (configuration not stated)
Second: CC(C)(C)OC(=O)N1CCC(c2cc(C(F)(F)F)ccc2N)CC1
The melting point of the first is lower: 56 to 59 °C for the first, 120 °C for the second.

Compared with `Cc1ccc(NC(=O)c2ccc3c(c2)C(=O)N(c2c(C)cccc2C)C3=O)cc1C`, `COc1cccc(NC(=O)c2ccccc2C)c1` is lower in melting point: 223 to 225 °C for the first, 142 to 143 °C for the second.

Compared with `COc1ccc(Cn2nnnc2C(=O)Nc2cc(C#N)cc(NC(=O)c3nnnn3Cc3ccc(OC)cc3)c2Cl)cc1`, `CC(=O)Nc1ccc(SCC(=O)NCC(=O)N(C)c2ccc(Cl)c(COc3cccc4ccc(C)nc34)c2Cl)cc1` is lower in melting point: 223 to 225 °C for the first, 179 to 180 °C for the second.

Compared with `COC(=O)c1cc(C(=O)N2CCC(C(N)=O)CC2)c2cc(Cc3ccc(F)cc3)cnc2c1O`, `O=C(O)c1cc(-c2ccc3c(c2)CCO3)nn(Cc2ccc(F)cc2)c1=O` is lower in melting point: 235 to 238 °C for the first, 215 to 218 °C for the second.

Compared with `CCCCOc1cc(Cl)c(OCCCC)cc1N`, `CCCCC(=O)Nc1ccc(Cl)cc1C(=O)OC` is higher in melting point: 43 to 44 °C for the first, 48 to 49 °C for the second.

First: COc1ccc(C(C#Cc2ccccc2)CNC(C)=O)cc1OC1CCCC1 (racemic)
Second: O=C(O)COCCCCN(c1cnc(-c2ccccc2)c(-c2ccccc2)n1)C1CCCCC1
The melting point of the first is lower: 114 to 117 °C for the first, 130 to 131 °C for the second.

First: CCOC(=O)C(=O)Nc1cc(OC)c(OC)cc1[N+](=O)[O-]
Second: COc1cc(Br)c(OC)c(CC(=O)O)c1
The melting point of the first is higher: 163 °C for the first, 62 to 65 °C for the second.

Compared with `CC(=O)N1CCN(Cc2ccc(O)cc2)CC1`, `O=C(Cl)N1CC(Oc2ccc(Cl)cc2)C1` is lower in melting point: 130 to 132 °C for the first, 78 to 80 °C for the second.

First: O=S1(=O)Cc2ccc(F)cc2C(c2ccc(F)cc2)=NN1
Second: CC(=O)Nc1cc(-c2ccc(S(C)(=O)=O)cc2)c(-c2ccc(F)cc2)s1
The melting point of the first is higher: 196 to 200 °C for the first, 80 to 92 °C for the second.

First: CCCCCCCN(Cc1ccc(C(C)(C)C)cc1)C(Nc1ccc(-c2ccccc2)cc1)=C1C(=O)COC1=O
Second: CN(C)Cc1ccc2n1Cc1ccccc1N(C(=O)c1ccc(-c3ccccc3)cc1)C2
The melting point of the first is higher: 190 to 192 °C for the first, 85 to 87 °C for the second.

Compared with `NC(=O)c1cccc2c1[nH]c1c3cc(Br)ccc3oc21`, `CCCc1oc2ccccc2c1C(=O)c1ccc(OCCBr)cc1` is lower in melting point: 300 to 301 °C for the first, 68 to 70 °C for the second.

First: CCOC(=O)N1CCSC1C1=C(C)NC(=O)CS1 (configuration not stated)
Second: CCOC(=O)c1cn(CC)c2oc(CN3CCOCC3)cc2c1=O
The melting point of the first is lower: 146 to 147 °C for the first, 229 to 231 °C for the second.

First: C[C@H]1CCCC(C)(C)[C@@H]1[C@H](O)c1ccc(C#N)c(C(F)(F)F)c1
Second: O=C(Nc1ccccc1C(F)(F)F)c1ccc([N+](=O)[O-])cc1
The melting point of the first is lower: 118 to 119 °C for the first, 126 °C for the second.

First: OCc1nccn1C(c1ccccc1)(c1ccccc1)c1ccccc1
Second: O=C1c2ccccc2C(=O)N1CCCN(c1ccccc1)c1ccccn1
The melting point of the first is higher: 243 to 244 °C for the first, 103 to 105 °C for the second.

First: Cc1ccc(NS(=O)(=O)c2ccccc2)cc1N
Second: CCOC(=O)c1cccc(Nc2ccncc2N)c1
The melting point of the first is higher: 142 to 144 °C for the first, 80 to 91 °C for the second.

Compared with `CNC(=O)c1cccc(F)c1Nc1nc(Nc2ccc3c(c2)CCCC(=O)N3CCOC)ncc1Br`, `CCCc1nn(C)c2c(=O)[nH]c(Cc3ccc(NC=O)cc3)nc12` is higher in melting point: 191 to 193 °C for the first, 260 to 261 °C for the second.

First: CC(=O)OC1CSC(Oc2cc(F)cnc2C#N)C(OC(C)=O)C1OC(C)=O (configuration not stated)
Second: COC(=O)c1ccc(-c2ccc(-c3cn([C@H]4CN5CCC4CC5)nn3)s2)cc1F
The melting point of the first is lower: 150 °C for the first, 250 °C for the second.

Compared with `O=C1Nc2ccc(-c3cccc(Cl)c3)cc2C(C2CC2)(C2CC2)O1`, `CC(=O)c1ccc([N+](=O)[O-])c(Nc2cccc(-c3cccnc3)c2)c1` is lower in melting point: 198 to 200 °C for the first, 112 to 113 °C for the second.

First: CC(C)(C)c1cc(C=O)c(O)c(S(C)(=O)=O)c1
Second: CC1(C)CCc2cc(O)c(O)cc2C1=O
The melting point of the first is lower: 134 to 136 °C for the first, 163 to 165 °C for the second.

First: Cc1ccc(-c2cc(S(=O)(=O)c3ccc(N)cc3)cc(N3CCCC3)n2)cc1
Second: COC(=O)c1cccc(CN2CCOc3ccc(N)cc32)c1
The melting point of the first is higher: 250 to 251 °C for the first, 167 to 171 °C for the second.

First: CCOC(=O)NN=C(C)c1cccc(C(F)(F)F)c1
Second: CCOC(=O)CCC(=O)Nc1n[nH]c2cc(C(F)(F)F)ccc12
The melting point of the first is lower: 94 to 96 °C for the first, 248 °C for the second.

Compared with `CSc1nc2cc3c(cc2[nH]1)NC(=O)C3(C)C`, `CC1=Cc2cc(C#N)ccc2OC1(C)C` is lower in melting point: 248 to 250 °C for the first, 55 °C for the second.

First: COc1ccc(C2=C(CC(C)N)C(=O)NCCC2)cc1 (configuration not stated)
Second: C=CCC(C(=O)OC)C1(C)CCCc2c1[nH]c1ccccc21 (configuration not stated)
The melting point of the first is higher: 131 to 133 °C for the first, 115 to 116 °C for the second.

Compared with `CCN1C(=O)NC(=O)C1O` (configuration not stated), `CC(C)C1NC(=O)CN1C(=O)CNC(=O)OCc1ccccc1` (configuration not stated) is higher in melting point: 119 to 120 °C for the first, 137 to 139 °C for the second.

Compared with `COc1ccc2c(C)c(Cl)ccc2c1C(F)(F)F`, `CC(Oc1ccc(Oc2ccc(C(F)(F)F)cc2Cl)cc1)C(=O)O` (configuration not stated) is lower in melting point: 102 to 103 °C for the first, 90 to 92 °C for the second.

Compared with `O=C(CCC#Cc1ccccn1)Nc1ccccc1F`, `O=C(Nc1cccnc1Cl)c1ccccc1F` is higher in melting point: 82 to 84 °C for the first, 122 °C for the second.

First: CN(C)C(=O)Cc1cccc(NC(=O)N(C)C)c1
Second: Cc1nc2c(OCc3ccccc3)cc(C(=O)N(C)C)cn2c1C
The melting point of the first is lower: 80 to 81 °C for the first, 160 °C for the second.

`CCOC(=O)C=Cc1ccc(C=Cc2ccc(Br)cc2)cc1` and `N#Cc1cccn1-c1ccc(CN2C(=O)c3ccccc3C2=O)cc1` cannot be ordered by melting point: 167 °C for the first, 167 to 168 °C for the second.

Compared with `Cc1cc(-c2cc3cc(OCCNC[C@H](O)COc4ccccc4)ccc3o2)no1`, `O=C1c2ccc(OCCO)cc2C(=O)c2cc3ccccc3cc21` is higher in melting point: 144 to 146 °C for the first, 209 °C for the second.

First: Cc1c(C)c2c(c(C)c1NC(=O)c1ccc(F)cc1)C(c1ccc(C(C)C)cc1)C1(CCN(C)CC1)O2 (configuration not stated)
Second: Cc1ccccc1OCC(O)CN1CCC2(CC1)CSC1=C(O2)c2ccccc2C(=O)C1=O (configuration not stated)
The melting point of the first is higher: 271 to 272 °C for the first, 191 to 193 °C for the second.

First: Cc1nn(-c2ccc(C(F)(F)F)cn2)cc1COc1cc(/C=C/C(=O)O)n(C)n1
Second: C=CCn1c(=O)c2cnc(-n3ccnc3)nc2n(C(C)C)c1=O
The melting point of the first is higher: 208 to 209 °C for the first, 158 to 160 °C for the second.

First: O=C1Cc2ccccc2N1NCCCc1ccncc1F
Second: COc1ccc(-c2sc3c(c2CN(C)Cc2ccccc2)c(=O)c(C(C)O)cn3Cc2ccccc2F)cc1 (configuration not stated)
The melting point of the first is lower: 114 to 116 °C for the first, 183 to 187 °C for the second.

First: Cc1cc(C)cc(C(=O)c2c(C(C)C)c(=O)[nH]c(=O)n2Cc2cc(F)nc(F)c2)c1
Second: COc1cc(Nc2nc3cccc(-c4ccc(C(=O)N(C)C)cc4)c3o2)cc(OC)c1OC
The melting point of the first is lower: 185 to 187 °C for the first, over 280 °C for the second.

First: COc1cccc(OCC(N)=O)c1-c1c(C#N)c2ccccn2c1Nc1c(C)cccc1C
Second: CC(C)(Cc1ccc(O)cc1)NCC(O)c1cc(OCc2ccccc2)cc2c1OCC(=O)N2 (configuration not stated)
The melting point of the first is lower: 227 to 229 °C for the first, 255 to 258 °C for the second.

First: COCc1ccc2c(c1S(N)(=O)=O)S(=O)(=O)C(C)C2 (configuration not stated)
Second: COc1ccc(C(=O)CCCCCBr)c(Cl)c1Cl
The melting point of the first is higher: 115 °C for the first, 52 to 53 °C for the second.
